Like-named read-outs stand apart in the source and are kept apart here.
What was measured:
[1] = Repeat dose GLP study with dogs; format: in vivo
Description: These changes were reversible.

[2] = Single-dose toxicity in rats; format: in vivo
Method: A single-dose of TH302 was administered to rats and dogs over 30 min in order to achieve a rapid increase to relatively high drug levels. Rats were administered 50, 100, and 200 mg/kg, and dogs at 8, 16 and 32 mg/kg of TH302. […] These changes at the lowest toxicity level were fully reversible within 2 weeks.

[3] = Pharmacokinetics in Sprague-Dawley rats (single dose i.v. and p.o.); format: in vivo, male Sprague-Dawley rats; conditions: male, Sprague-Dawley, rat, rats; for clearance: read-out: CL (converted); for Vd: read-out: Vss; for AUC(0-t): read-out: AUC(0-t); for Cmax: read-out: Cmax; for MRT: read-out: MRT
Method: Pharmacokinetic studies were performed in male CD-1 (50 mg/kg i.p. or orally (p.o.)) or female nude mice (50 mg/kg i.v. or i.p.), male Sprague-Dawley rats (1, 5, 20 and 50 mg/kg i.v. and 100 mg/kg, p.o.), beagle dogs (20 mg/kg, i.v.) and cynomologus monkeys (20 mg/kg i.v.). Plasma TH302 concentrations were analyzed using a LC/MS method and the pharmacokinetic parameters computed using a noncompartmental method. Interspecies scaling was performed according to standard methods.
TH302 was dissolved in 50% PEG400/Saline to obtain a final concentration of 25 mg/mL, and then was further diluted to yield 25, 10, 2.5 and 0.5 mg/mL formulations of TH302 (pH The formulations were prepared just before dosing. The concentration of TH302 in dosing solution was confirmed by HPLC-UV. Male Sprague Dawley rats (body weight: 200 g to 230 g) were used in this study. Before the pharmacokinetic studies, animals were randomly assigned to four treatment groups cannulated in the carotid artery for serial blood sampling. All rats were administered a single intravenous bolus dose over one minute via the tail vein. The concentrations of TH302 in plasma were determined using a high performance liquid chromatography/mass spectrometry (HPLC/MS/MS) method. […]

[4] = in vivo, iv, 1 mg/kg, 1 mg/kg i.v. bolus, MEAN
[5] = in vivo, iv, 5 mg/kg, 5 mg/kg i.v. bolus, MEAN
[6] = in vivo, iv, 20 mg/kg, 20 mg/kg i.v. bolus, MEAN
[7] = in vivo, iv, 20 mg/kg, 20 mg/kg i.v. bolus, individual animals
[8] = in vivo, iv, 50 mg/kg, 50 mg/kg i.v. bolus, MEAN
[9] = plasma, iv, 1 mg/kg, 1 mg/kg i.v. bolus, MEAN
[10] = plasma, iv, 1 mg/kg, 1 mg/kg i.v. bolus, individual animals
[11] = plasma, iv, 5 mg/kg, 5 mg/kg i.v. bolus, MEAN
[12] = plasma, iv, 5 mg/kg, 5 mg/kg i.v. bolus, individual animals
[13] = plasma, iv, 20 mg/kg, 20 mg/kg i.v. bolus, MEAN
[14] = plasma, iv, 20 mg/kg, 20 mg/kg i.v. bolus, individual animals

In the case of `Cn1c(COP(=O)(NCCBr)NCCBr)cnc1[N+](=O)[O-]` [TH302], the “human equivalent dose of the minimally toxic dose” value ([1]; 8 mg/kg dog dose divided by 1.8) is reported as “about 4.5 mg/kg”, the minimally toxic dose ([1]; dog) is reported as 8 mg/kg and the “bone marrow finding at the high dose level” value ([1]; dogs, 16 mg/kg repeat dose) is reported as “hypocellularity was also reported in the bone marrow”. For the same compound, the hematologic findings ([1]; dogs, 4, 8, and 16 mg/kg repeat dose, particularly at the high dose level) was “leucopenia and neutropenia were evident”, the reversibility of changes ([1]; dogs, repeat dose) was “reversible” and the “affected organs at the highest dose level” value ([2]; 200 mg/kg single dose) was “bone marrow, kidney, thymus and intestine”. The lethality ([2]; single dose over 30 min, highest dose 200 mg/kg) was “lethality was observed”, the “primary findings at the lowest toxicity level” value ([2]; single dose study) was “reduction in white blood cell counts accompanied only by moderate weight loss in male rats” and the “time to full reversal of changes at the lowest toxicity level” value ([2]; single dose study) was no more than 2 weeks. For the same compound, the “species specific toxicity at the highest dose” value ([2]; single dose, 200 mg/kg) was “rat adipose and spleen”, the clearance [3, 4] was 78.2 mL/min/kg and the Vd [3, 4] was 2.05 L/kg. It also gave a clearance [3, 5] of 102 mL/min/kg, a Vd [3, 5] of 5.09 L/kg and a Vd ([3]; in vivo, iv, 5 mg/kg, 5 mg/kg i.v. bolus, individual animals) of 2.51 L/kg. It also gave a clearance [3, 6] of 102 mL/min/kg, a Vd [3, 6] of 2.29 L/kg and a clearance [3, 7] of 98.5 mL/min/kg. It also gave a Vd [3, 7] of 2.29 L/kg, a clearance [3, 8] of 98.5 mL/min/kg and a Vd [3, 8] of 1.67 L/kg. For the same compound, the half-life ([3]; in vivo, iv, 1 mg/kg i.v. bolus, MEAN, read-out: T1/2 (converted)) was 2.03 h, the half-life ([3]; in vivo, iv, 5 mg/kg i.v. bolus, MEAN, read-out: T1/2 (converted)) was 3.75 h and the half-life ([3]; in vivo, iv, 20 mg/kg i.v. bolus, MEAN, read-out: T1/2 (converted)) was 4.37 h. The half-life ([3]; in vivo, iv, 50 mg/kg i.v. bolus, MEAN, read-out: T1/2 (converted)) was 1.32 h, the bioavailability ([3]; in vivo, po, 100 mg/kg p.o., read-out: absolute oral bioavailability) was 77.3% and the half-life ([3]; in vivo, po, after p.o. dosing 100 mg/kg, read-out: terminal plasma t1/2 (converted)) was 1.59 h. It also gave an AUC(0-inf) [3, 9] of 221 ng·h/mL, an AUC(0-t) [3, 9] of 217 ng·h/mL and a Cmax [3, 9] of 802 ng/mL. The MRT [3, 9] was 0.89 h, the AUC(0-inf) [3, 10] was 178 ng·h/mL and the AUC(0-t) [3, 10] was 175 ng·h/mL. For the same compound, the clearance [3, 10] was 93.3 mL/min/kg, the Cmax [3, 10] was 683 ng/mL and the MRT [3, 10] was 0.95 h. It also gave a half-life ([3]; plasma, iv, 1 mg/kg, 1 mg/kg i.v. bolus, individual animals, read-out: T1/2 (converted)) of 1.75 h, a Vd [3, 10] of 1.83 L/kg and an AUC(0-inf) [3, 11] of 826 ng·h/mL. For the same compound, the AUC(0-t) [3, 11] was 799 ng·h/mL, the Cmax [3, 11] was 3820 ng/mL and the MRT [3, 11] was 0.9 h. The AUC(0-inf) [3, 12] was 732 ng·h/mL, the AUC(0-t) [3, 12] was 730 ng·h/mL and the clearance [3, 12] was 114 mL/min/kg. For the same compound, the Cmax [3, 12] was 3840 ng/mL, the Vd [3, 12] was 7.68 L/kg and the AUC(0-inf) [3, 13] was 3310 ng·h/mL. For the same compound, the AUC(0-t) [3, 13] was 3270 ng·h/mL, the Cmax [3, 13] was 13500 ng/mL and the MRT [3, 13] was 0.59 h. For the same compound, the AUC(0-inf) [3, 14] was 2920 ng·h/mL, the AUC(0-t) [3, 14] was 2830 ng·h/mL and the clearance [3, 14] was 114 mL/min/kg. The Cmax [3, 14] was 13400 ng/mL, the Vd [3, 14] was 2.89 L/kg and the AUC(0-inf) ([3]; plasma, iv, 50 mg/kg, 50 mg/kg i.v. bolus, MEAN) was 8470 ng·h/mL.

— patent US8552048B2, “Phosphoramidate alkylator prodrugs for the treatment of cancer” (Threshold Pharmaceuticals, Inc., priority 2006, dated 2013)
